From patent publication US9708268B2, “ROR modulators and their uses” (INNOV17 LLC, priority 2012, dated 2017)

Tests used:
[1] = test system: IL-17A; assay: TH17 cytokine inhibition as measured by ELISA (IL-17A); type: cell-based; conditions: 120 h; human CD4+ T cells differentiated to TH17 over 5 days, supernatant ELISA, vs DMSO
Description: (§1) Peripheral blood mononuclear cells (PBMCs) were sourced from freshly prepared leukocyte enriched plasma (buffy coat) from healthy volunteers from which PBMCs were isolated by density gradient centrifugation using Ficoll-Paque™ PLUS (GE Healthcare). Naïve CD4+ T cells were isolated using the Naïve CD4+ T cell Isolation Kit II (Miltenyi Biotec) as per manufacturer's instructions. CD4+ T cells were plated at 5×10^4 cells/well in 96 well plates pre-coated with immobilized human (h)-αCD3 antibody (eBioscience) then differentiated to TH17 cells using h-αCD28, h-αIFN-γ, h-αIL-4, h-IL-6, h-IL-23, […], h-TGF-β1 (eBioscience) and maintained in a cell culture incubator at 37° C. with 5% CO2 in TexMACS Medium (Miltenyi Biotec) supplemented with 1% Penicillin/Streptomycin (Lonza) over 5 days.
(§2) Human CD4+ T cells were differentiated to TH17 cells as described in the presence or absence of various concentrations of compounds in a final concentration of 0.1% DMSO in TexMACS medium. Supernatants were collected and stored at −20° C. until they were to be assayed for IL-17A, IL-17F, IL-17AF, IL-21 and/or IL-22 levels as determined by Ready-Set-Go ELISA kits (eBioscience) as per manufacturer's instructions. Endpoint absorbance was read at 450 nm and 570 nm according to manufacturer's instructions (eBioscience) using a microplate reader (Perkin Elmer). The percentage of cytokine inhibition was calculated with reference to DMSO treated cells and the IC50s were determined by GraphPad Prism software and presented in the table below.

[2] = test system: IL-17F; assay: TH17 cytokine inhibition as measured by ELISA (IL-17F); type: cell-based; conditions: 120 h; human CD4+ T cells differentiated to TH17 over 5 days, supernatant ELISA, vs DMSO
Description: as §1, §2

[3] = test system: IL-17AF; assay: TH17 cytokine inhibition as measured by ELISA (IL-17AF); type: cell-based; conditions: 120 h; human CD4+ T cells differentiated to TH17 over 5 days, supernatant ELISA, vs DMSO
Description: as §1, §2

[4] = test system: IL-22; assay: TH17 cytokine inhibition as measured by ELISA (IL-22); type: cell-based; conditions: 120 h; human CD4+ T cells differentiated to TH17 over 5 days, supernatant ELISA, vs DMSO
Description: as §1, §2

[5] = TH17 cell viability (Prestoblue); type: cell-based; parameters: concentration or dose not given beside the values; conditions: human; percentage of DMSO treated cells; read-out: % viability of compound treated TH17 cells
Description: as §1
Cells were assayed for viability in the presence or absence of compound using Prestoblue® Cell Viability Reagent (Life Technologies) as per manufacturer's instructions after 30 minutes incubation of TH17 cells with reagent. Absorbance was measured at 570 nm and 600 nm using a microplate reader (Perkin Elmer) and data were analyzed as per manufacturer's instructions. Cell viability was expressed as a percentage of DMSO treated cells.

[6] = test system: TH17 cells; assay: TH17 cellular proliferation (Prestoblue); type: cell-based, human; conditions: 3 μM compound, after 5 day TH17 differentiation, relative to DMSO treated cells
Description: as §1
Cellular proliferation was assessed in the presence or absence of 3 μM compound using Prestoblue® Cell Viability Reagent (Life Technologies) as per manufacturer's instructions using absorbance as the output measured by a microplate reader (Perkin Elmer) after 30 minutes of incubation of cells and reagent. A standard curve developed by plotting varying cell numbers versus absorbance was used to assess differences in cellular proliferation between compound treated or untreated cells after the 5 day TH17 differentiation period.

[7] = test system: IL-17A; assay: Real-time qRT-PCR gene expression in TH17 cells (IL-17A); type: cell-based, human; parameters: key: A: No change in gene expression observed relative to DMSO treated TH17 cells; B: Decreased gene expression observed relative to DMSO treated TH17 cells; C: Increased gene expression observed relative to DMSO treated TH17 cells; conditions: mRNA
Description: as §1
(§3) RNA was isolated from TH17 cells and cDNA was synthesized using the Verso cDNA kit (Thermo Scientific) as per manufacturer's instructions. IL-17A, IL-17F, IL-21, IL-22, G-CSF, IL-23R and FOXP3 gene expression were determined for compound treated and untreated TH17 cell samples using Solaris qPCR Gene expression assays (Thermo Scientific) with an iCycler iQ Real-Time PCR Detection System (Bio-Rad). Individual gene expression was normalized to a panel of six reference genes (ACTB, TBP, HPRT1, PGK1, TFRC and PPIA) (Thermo Scientific) and analyzed by REST 2009 (Qiagen) in accordance to MIQE guidelines (Bustin, et al. (2009) Clin. Chem. 55, 611-622), which is hereby incorporated by reference in its entirety). The effects of compounds on TH17 cytokine mRNA levels are presented as fold change in gene expression of compound treated TH17 cells relative to DMSO treated cells in the table below.

[8] = test system: IL-17F; assay: Real-time qRT-PCR gene expression in TH17 cells (IL-17F); type: cell-based, human; parameters: key: A: No change in gene expression observed relative to DMSO treated TH17 cells; B: Decreased gene expression observed relative to DMSO treated TH17 cells; C: Increased gene expression observed relative to DMSO treated TH17 cells; conditions: mRNA
Description: as §1, §3

[9] = test system: IL-22; assay: Real-time qRT-PCR gene expression in TH17 cells (IL-22); type: cell-based, human; parameters: key: A: No change in gene expression observed relative to DMSO treated TH17 cells; B: Decreased gene expression observed relative to DMSO treated TH17 cells; C: Increased gene expression observed relative to DMSO treated TH17 cells; conditions: mRNA
Description: as §1, §3

[10] = test system: IL-21; assay: Real-time qRT-PCR gene expression in TH17 cells (IL-21); type: cell-based, human; parameters: key: A: No change in gene expression observed relative to DMSO treated TH17 cells; B: Decreased gene expression observed relative to DMSO treated TH17 cells; C: Increased gene expression observed relative to DMSO treated TH17 cells; conditions: mRNA
Description: as §1, §3

[11] = test system: IL-23R; assay: Real-time qRT-PCR gene expression in TH17 cells (IL-23R); type: cell-based, human; parameters: key: A: No change in gene expression observed relative to DMSO treated TH17 cells; B: Decreased gene expression observed relative to DMSO treated TH17 cells; C: Increased gene expression observed relative to DMSO treated TH17 cells; conditions: mRNA
Description: as §1, §3

[12] = test system: FOXP3; assay: Real-time qRT-PCR gene expression in TH17 cells (FOXP3); type: cell-based, human; parameters: key: A: No change in gene expression observed relative to DMSO treated TH17 cells; B: Decreased gene expression observed relative to DMSO treated TH17 cells; C: Increased gene expression observed relative to DMSO treated TH17 cells; conditions: mRNA
Description: as §1, §3

[13] = target: human RORγ LBD (Homo sapiens (Human), UniProt P51449); assay: RORγ LBD binding (Human RORγ Assay System, INDIGO Biosciences)
Description: Compound binding to the human RORγ LBD was assessed using the Human RORγ Assay System (INDIGO Biosciences Inc.) as per manufacturer's instructions.

Sequence of human RORγ LBD (P51449 269-508): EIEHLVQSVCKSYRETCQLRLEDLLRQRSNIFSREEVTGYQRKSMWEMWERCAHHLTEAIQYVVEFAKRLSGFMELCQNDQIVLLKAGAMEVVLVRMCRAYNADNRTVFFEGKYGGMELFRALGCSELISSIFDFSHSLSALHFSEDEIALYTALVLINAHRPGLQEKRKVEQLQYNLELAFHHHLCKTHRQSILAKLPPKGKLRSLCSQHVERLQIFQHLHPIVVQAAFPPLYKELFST

## CN(C)C(=O)c1ccc2c(c1)CCCN2Cc1ccc(C(O)(C(F)(F)F)C(F)(F)F)cc1 [Example 4, 1-(4-(1,1,1,3,3,3-hexafluoro-2-hydroxypropan-2-yl)benzyl)-N,N-dimethyl-1,2,3,4-tetrahydroquinoline-6-carboxamide]
[1]
  IC50: < 10 µM
[2]
  IC50: < 10 µM
[3]
  IC50: < 10 µM
[4]
  IC50: < 10 µM
[5]
  viability: > 80%
[6]
  % change in TH17 cell number: B (≦50% decrease in cell proliferation relative to DMSO treated TH17 cells)
[7]
  Change in gene expression of compound treated TH17 cells relative to DMSO treated cells, IL-17A: A
[8]
  Change in gene expression of compound treated TH17 cells relative to DMSO treated cells, IL-17F: A
[9]
  Change in gene expression of compound treated TH17 cells relative to DMSO treated cells, IL-22: A
[10]
  Change in gene expression of compound treated TH17 cells relative to DMSO treated cells, IL-21: A
[11]
  Change in gene expression of compound treated TH17 cells relative to DMSO treated cells, IL-23R: A
[12]
  Change in gene expression of compound treated TH17 cells relative to DMSO treated cells, FOXP3: A
[13]
  IC50: < 10 µM

## CNC(=O)c1ccc2c(c1)CCCN2Cc1ccc(C(O)(C(F)(F)F)C(F)(F)F)cc1 [Example 3, 1-(4-(1,1,1,3,3,3-hexafluoro-2-hydroxypropan-2-yl)benzyl)-N-methyl-1,2,3,4-tetrahydroquinoline-6-carboxamide]
[1]
  IC50: < 10 µM
[2]
  IC50: < 10 µM
[3]
  IC50: < 10 µM
[4]
  IC50: < 10 µM
[5]
  viability: > 80%
[6]
  % change in TH17 cell number: B (≦50% decrease in cell proliferation relative to DMSO treated TH17 cells)
[7]
  Change in gene expression of compound treated TH17 cells relative to DMSO treated cells, IL-17A: A
[8]
  Change in gene expression of compound treated TH17 cells relative to DMSO treated cells, IL-17F: A
[9]
  Change in gene expression of compound treated TH17 cells relative to DMSO treated cells, IL-22: A
[10]
  Change in gene expression of compound treated TH17 cells relative to DMSO treated cells, IL-21: A
[11]
  Change in gene expression of compound treated TH17 cells relative to DMSO treated cells, IL-23R: A
[12]
  Change in gene expression of compound treated TH17 cells relative to DMSO treated cells, FOXP3: A
[13]
  IC50: < 10 µM
